Activity calls are given as the source filed them. The calls are words filed in the database; no cut-off is given here. Residues, ends and D or L forms follow the SMILES beside them.
Tests used:
[1] = target: T1, Prostaglandin G/H synthase 2 (Homo sapiens, UniProt P35354); experiment: Inhibition of human recombinant COX2 by fluorescence assay
T1 sequence (P35354 whole entry): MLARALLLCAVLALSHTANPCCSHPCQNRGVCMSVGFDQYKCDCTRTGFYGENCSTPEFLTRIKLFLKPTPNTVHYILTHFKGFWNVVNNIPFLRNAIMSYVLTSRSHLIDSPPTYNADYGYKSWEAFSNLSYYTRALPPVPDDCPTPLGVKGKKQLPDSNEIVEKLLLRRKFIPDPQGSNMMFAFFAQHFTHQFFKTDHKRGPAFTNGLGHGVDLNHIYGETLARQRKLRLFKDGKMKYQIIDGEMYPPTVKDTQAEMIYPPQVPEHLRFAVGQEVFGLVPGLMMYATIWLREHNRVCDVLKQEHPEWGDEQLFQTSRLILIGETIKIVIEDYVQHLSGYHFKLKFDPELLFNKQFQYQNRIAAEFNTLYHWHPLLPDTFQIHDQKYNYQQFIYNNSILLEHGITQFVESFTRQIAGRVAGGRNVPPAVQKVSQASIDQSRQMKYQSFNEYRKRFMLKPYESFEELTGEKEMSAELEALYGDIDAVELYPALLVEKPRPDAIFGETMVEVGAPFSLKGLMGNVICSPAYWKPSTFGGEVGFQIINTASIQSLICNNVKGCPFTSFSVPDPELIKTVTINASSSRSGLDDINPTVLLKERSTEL

[2] = target: T2, Prostaglandin G/H synthase 1 (Ovis aries, UniProt P05979); experiment: Inhibition of ovine COX1 by fluorescence assay
T2 sequence (P05979 whole entry): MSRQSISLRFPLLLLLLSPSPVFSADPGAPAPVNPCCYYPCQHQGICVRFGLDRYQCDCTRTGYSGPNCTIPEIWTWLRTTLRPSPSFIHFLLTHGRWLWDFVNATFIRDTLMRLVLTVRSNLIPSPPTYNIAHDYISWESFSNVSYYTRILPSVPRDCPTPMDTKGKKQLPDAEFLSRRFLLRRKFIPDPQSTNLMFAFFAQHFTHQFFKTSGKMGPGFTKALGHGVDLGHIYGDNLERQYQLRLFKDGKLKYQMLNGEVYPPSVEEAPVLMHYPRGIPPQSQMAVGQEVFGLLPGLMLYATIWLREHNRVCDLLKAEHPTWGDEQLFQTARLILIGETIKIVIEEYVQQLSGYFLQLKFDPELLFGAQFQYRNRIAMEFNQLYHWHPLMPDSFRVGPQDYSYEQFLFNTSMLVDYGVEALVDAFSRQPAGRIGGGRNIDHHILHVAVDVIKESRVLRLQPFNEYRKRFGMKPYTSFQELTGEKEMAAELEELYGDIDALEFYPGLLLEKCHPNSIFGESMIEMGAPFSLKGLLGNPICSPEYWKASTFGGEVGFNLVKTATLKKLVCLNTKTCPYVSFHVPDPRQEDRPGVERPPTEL

[3] = target: T3, Prostaglandin G/H synthase 1 (Ovis aries) (UniProt P05979); experiment: Inhibition of ovine COX1 at 1 nM to 1 mM by fluorescence assay
T3 sequence (whole entry): T2 sequence (P05979 whole entry)

[4] = target: T1, Prostaglandin G/H synthase 2; experiment: Binding affinity to COX2 by surface plasmon resonance spectroscopy
[5] = target: T1, Prostaglandin G/H synthase 2; experiment: Inhibition of COX2 by ELISA
[6] = target: T4, Prostaglandin G/H synthase 2 (Homo sapiens) (UniProt P35354); experiment: Inhibition of human recombinant COX2 at 1 nM to 1 mM by fluorescence assay
T4 sequence (whole entry): T1 sequence (P35354 whole entry)

Compound	IC50 [1] [µM]	IC50 [2] [µM]	inhibition [3]	Kd [4] [µM]	IC50 [5] [µM]	inhibition [6]
N[C@@H](Cc1c[nH]c2ccccc12)C(=O)N[C@@H](Cc1ccc(O)cc1)C(=O)N[C@@H](CC(=O)O)C(=O)O (H-Trp-Tyr-Asp-OH)	700	–	inactive	–	–	–
CSCC[C@H](NC(=O)[C@H](Cc1ccccc1)NC(=O)c1ccc(F)cc1)C(=O)N[C@@H](CCC(=O)O)C(=O)O	> 1000	–	inactive	–	–	–
CSCC[C@H](NC(=O)[C@H](Cc1c[nH]c2ccccc12)NC(=O)c1ccc(F)cc1)C(=O)N[C@@H](CC(=O)O)C(=O)O	450	–	inactive	–	–	–
CSCC[C@H](NC(=O)[C@H](Cc1c[nH]c2ccccc12)NC(=O)c1ccc(F)cc1)C(=O)N[C@@H](CCC(=O)O)C(=O)O	350	–	inactive	–	–	–
O=C(O)C[C@H](NC(=O)[C@H](Cc1ccc(O)cc1)NC(=O)[C@H](Cc1c[nH]c2ccccc12)NC(=O)c1ccc(F)cc1)C(=O)O	–	–	inactive	–	–	inactive
CSCC[C@H](NC(=O)[C@H](Cc1ccc(O)cc1)NC(=O)c1ccc(F)cc1)C(=O)N[C@@H](CC(=O)O)C(=O)O	> 1000	–	inactive	–	–	–
O=C(N[C@@H](Cc1ccc(O)cc1)C(=O)N[C@@H](Cc1c[nH]c2ccccc12)C(=O)N[C@@H](CO)C(=O)O)c1ccc(F)cc1	180	–	inactive	–	–	–
CSCC[C@H](NC(=O)[C@H](Cc1ccccc1)NC(=O)c1ccc(F)cc1)C(=O)N[C@@H](CC(=O)O)C(=O)O	450	–	inactive	–	–	–
O=C(N[C@@H](Cc1c[nH]c2ccccc12)C(=O)N[C@@H](CO)C(=O)O)c1ccc(F)cc1	200	–	inactive	–	–	–
CSCC[C@H](NC(=O)[C@H](Cc1ccc(O)cc1)NC(=O)c1ccc(F)cc1)C(=O)N[C@@H](CCC(=O)O)C(=O)O	500	–	inactive	–	–	–

Further lines, results first:

IC50 [1] [µM]	IC50 [2] [µM]	inhibition [3]	Kd [4] [µM]	IC50 [5] [µM]	inhibition [6]	Compound
13	27	–	–	–	–	O=C(N[C@@H](Cc1ccccc1)C(=O)N[C@@H](CS)C(=O)N[C@@H](CO)C(=O)O)c1ccc(F)cc1
21	6	–	0.00019	0.015	–	N[C@@H](Cc1c[nH]c2ccccc12)C(=O)N[C@@H](CS)C(=O)N[C@@H](CO)C(=O)O (H-Trp-Cys-Ser-OH)
15	5	–	–	–	–	O=C(N[C@@H](CS)C(=O)N[C@@H](CO)C(=O)O)c1ccc(F)cc1
110	–	inactive	–	–	–	O=C(O)C[C@H](NC(=O)[C@H](Cc1ccc(O)cc1)NC(=O)c1ccc(F)cc1)C(=O)O
85	140	–	–	–	–	O=C(N[C@@H](Cc1c[nH]c2ccccc12)C(=O)N[C@@H](CS)C(=O)N[C@@H](CO)C(=O)O)c1ccc(F)cc1
14	15	–	–	–	–	O=C(O)C[C@H](NC(=O)[C@H](CS)NC(=O)c1ccc(F)cc1)C(=O)O
140	–	inactive	–	–	–	O=C(N[C@@H](Cc1ccc(O)cc1)C(=O)N[C@@H](CO)C(=O)O)c1ccc(F)cc1

Source: ChEMBL document CHEMBL1955752, “Synthesis and evaluation of fluorobenzoylated di- and tripeptides as inhibitors of cyclooxygenase-2 (COX-2)” (Bioorg Med Chem, 2012)
